This assay has as its target PD-1/PD-L1 interaction (PD-1-Ig / PD-L1-His) (Homo sapiens (Human), UniProt Q9NZQ7). In words: PD-1/PD-L1 Homogenous Time-Resolved Fluorescence (HTRF) binding assay. Particulars: PD-1/PD-L1 HTRF binding assay, read-out: Range or IC50. Put shortly: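 Human PD-L1-His (10 nM final) was pre-incubated with inhibitor for 15 min, then PD-1-Ig (20 nM final) was added for a further 15 min in dPBS with 0.1% BSA and 0.05% Tween-20. Binding was detected by HTRF using Eu-cryptate anti-Ig (1 nM) and APC anti-His (20 nM).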
Background: TR-FRET usually uses a lanthanide donor and a delayed reading to cut background.

Like-named read-outs stand apart in the source and are kept apart here.

Sequence of PD-1/PD-L1 interaction (PD-1-Ig / PD-L1-His) (Q9NZQ7 other isoform, or with tags, fused parts or gaps): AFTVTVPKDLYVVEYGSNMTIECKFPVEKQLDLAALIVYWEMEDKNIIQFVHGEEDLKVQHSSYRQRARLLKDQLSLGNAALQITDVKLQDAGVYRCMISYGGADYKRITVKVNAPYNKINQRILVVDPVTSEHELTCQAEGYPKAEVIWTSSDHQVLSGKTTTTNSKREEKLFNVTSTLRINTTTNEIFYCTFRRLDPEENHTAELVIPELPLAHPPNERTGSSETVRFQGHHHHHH

One may read the IC50 as the point on the concentration scale where inhibition reaches its midpoint. `Cc1cc(CN[C@@](C)(CO)C(=O)O)c(OCc2cccnc2)cc1OCc1cccc(-c2ccc3c(c2)OCCO3)c1C` [Example 1280, (S)-2-((4-((3-(2,3-dihydrobenzo[b][1,4]dioxin-6-yl)-2-methylbenzyl)oxy)-5-methyl-2-(pyridin-3-ylmethoxy)benzyl)amino)-3-hydroxy-2-methylpropanoic acid]: under “value given as range class”, the half-maximal inhibitory concentration (IC50) lay within 0.0006 to 0.01 µM.
Same read-out and setting: with `Cc1cc(CN[C@](C)(CO)C(=O)O)c(OCc2cccnc2)cc1OCc1cccc(-c2ccc3c(c2)OCCO3)c1C` [Example 1281, (R)-2-((4-((3-(2,3-dihydrobenzo[b][1,4]dioxin-6-yl)-2-methylbenzyl)oxy)-5-methyl-2-(pyridin-3-ylmethoxy)benzyl)amino)-3-hydroxy-2-methylpropanoic acid] the figure was 0.0006 to 0.01 µM; with `CC(=O)NCCNCc1cc(C)c(OCc2cccc(-c3ccc4c(c3)OCCO4)c2C)cc1OCc1cncc(C#N)c1` [Example 1282, N-(2-(2-((5-cyanopyridin-3-yl)methoxy)-4-(3-(2,3-dihydrobenzo[b][1,4]dioxin-6-yl)-2-methylbenzyloxy)-5-methylbenzylamino)ethyl)acetamide], 0.0006 to 0.01 µM.
Same read-out and setting: with `Cc1cc(CNC[C@@H](O)CC(=O)O)c(OCc2cncc(C#N)c2)cc1OCc1cccc(-c2ccc3c(c2)OCCO3)c1C` [Example 1283, (S)-4-(2-((5-cyanopyridin-3-yl)methoxy)-4-(3-(2,3-dihydrobenzo[b][1,4]dioxin-6-yl)-2-methylbenzyloxy)-5-methylbenzylamino)-3-hydroxybutanoic acid] the figure was 0.0006 to 0.01 µM.
As for `Cc1cc(CN[C@@H](CO)C(=O)O)c(OCc2cncc(C#N)c2)cc1OCc1cccc(-c2ccc3c(c2)OCCO3)c1C` [Example 1284, (S)-2-(2-((5-cyanopyridin-3-yl)methoxy)-4-(3-(2,3-dihydrobenzo[b][1,4]dioxin-6-yl)-2-methylbenzyloxy)-5-methylbenzylamino)-3-hydroxypropanoic acid], under “value given as range class”, the half-inhibitory concentration (IC50) was 0.0006 to 0.01 µM.
`Cc1cc(CN2CCCC[C@H]2C(=O)O)c(OCc2cncc(C#N)c2)cc1OCc1cccc(-c2ccc3c(c2)OCCO3)c1C` [Example 1285, (S)-1-(2-((5-cyanopyridin-3-yl)methoxy)-4-(3-(2,3-dihydrobenzo[b][1,4]dioxin-6-yl)-2-methylbenzyloxy)-5-methylbenzyl)piperidine-2-carboxylic acid]: the IC50 (value given as range class) was in the range of 0.0006 to 0.01 µM.
Same read-out and setting: the value for `Cc1cc(CN[C@@](C)(CO)C(=O)O)c(OCc2cncc(C#N)c2)cc1OCc1cccc(-c2ccc3c(c2)OCCO3)c1C` [Example 1286, (S)-2-(2-((5-cyanopyridin-3-yl)methoxy)-4-(3-(2,3-dihydrobenzo[b][1,4]dioxin-6-yl)-2-methylbenzyloxy)-5-methylbenzylamino)-3-hydroxy-2-methylpropanoic acid] was 0.0006 to 0.01 µM; that for `Cc1cc(CN[C@](C)(CO)C(=O)O)c(OCc2cncc(C#N)c2)cc1OCc1cccc(-c2ccc3c(c2)OCCO3)c1C` [Example 1287, (R)-2-(2-((5-cyanopyridin-3-yl)methoxy)-4-(3-(2,3-dihydrobenzo[b][1,4]dioxin-6-yl)-2-methylbenzyloxy)-5-methylbenzylamino)-3-hydroxy-2-methylpropanoic acid] was 0.0006 to 0.01 µM.
Take `Cc1cc(CN2CCCC[C@@H]2C(=O)O)c(OCc2cncc(C#N)c2)cc1OCc1cccc(-c2ccc3c(c2)OCCO3)c1C` [Example 1288, (R)-1-(2-((5-cyanopyridin-3-yl)methoxy)-4-(3-(2,3-dihydrobenzo[b][1,4]dioxin-6-yl)-2-methylbenzyloxy)-5-methylbenzyl)piperidine-2-carboxylic acid]: where the note is “numeric value”, the IC50 was found to be 0.00188 µM.
For the compound `CCc1cc(CNCCNC(C)=O)c(OCc2cccc(C#N)c2)cc1OCc1cccc(-c2ccc3c(c2)OCCO3)c1C` [Example 1289, N-(2-(2-(3-cyanobenzyloxy)-4-(3-(2,3-dihydrobenzo[b][1,4]dioxin-6-yl)-2-methylbenzyloxy)-5-ethylbenzylamino)ethyl)acetamide], the half-maximal inhibitory concentration (IC50) (value given as range class) lay in the range of 0.0006 to 0.01 µM.
Still for that read-out and setting: with `CCc1cc(CN[C@@](C)(CO)C(=O)O)c(OCc2cccc(C#N)c2)cc1OCc1cccc(-c2ccc3c(c2)OCCO3)c1C` [Example 1290, (S)-2-(2-(3-cyanobenzyloxy)-4-(3-(2,3-dihydrobenzo[b][1,4]dioxin-6-yl) -2-methylbenzyloxy)-5-ethylbenzylamino)-3-hydroxy-2-methylpropanoic acid] the figure was 0.0006 to 0.01 µM; with `CCc1cc(CN[C@](C)(CO)C(=O)O)c(OCc2cccc(C#N)c2)cc1OCc1cccc(-c2ccc3c(c2)OCCO3)c1C` [Example 1291, (R)-2-(2-(3-cyanobenzyloxy)-4-(3-(2,3-dihydrobenzo[b][1,4]dioxin-6-yl)-2-methylbenzyloxy)-5-ethylbenzylamino)-3-hydroxy-2-methylpropanoic acid], 0.0006 to 0.01 µM.
On to `C=Cc1cc(CNCCNC(C)=O)c(OCc2cccc(C#N)c2)cc1OCc1cccc(-c2ccc3c(c2)OCCO3)c1C` [Example 1292, N-(2-(2-(3-cyanobenzyloxy)-4-(3-(2,3-dihydrobenzo[b][1,4]dioxin-6-yl)-2-methylbenzyloxy)-5-vinylbenzylamino)ethyl)acetamide], for which the IC50 (value given as range class) is 0.0006 to 0.01 µM.
Still for that read-out and setting: the value for `C=Cc1cc(CN2CCCC[C@H]2C(=O)O)c(OCc2cccc(C#N)c2)cc1OCc1cccc(-c2ccc3c(c2)OCCO3)c1C` [Example 1293, (S)-1-(2-(3-cyanobenzyloxy)-4-(3-(2,3-dihydrobenzo[b][1,4]dioxin-6-yl) -2-methylbenzyloxy)-5-vinylbenzyl)piperidine-2-carboxylic acid] was 0.0006 to 0.01 µM; that for `CC(=O)NCCNCc1cc(C)c(OCc2cccc(-c3ccc4c(c3)OCCO4)c2C)cc1OCCCCC#N` [Example 1294, N-(2-(2-(4-cyanobutoxy)-4-(3-(2,3-dihydrobenzo[b][1,4]dioxin-6-yl)-2-methylbenzyloxy)-5-methylbenzylamino)ethyl)acetamide] was 0.01 to 0.1 µM.
As to `Cc1cc(CNC[C@@H](O)CC(=O)O)c(OCCCCC#N)cc1OCc1cccc(-c2ccc3c(c2)OCCO3)c1C` [Example 1295, (S)-4-(2-(4-cyanobutoxy)-4-(3-(2,3-dihydrobenzo[b][1,4]dioxin-6-yl)-2-methylbenzyloxy)-5-methylbenzylamino)-3-hydroxybutanoic acid], the IC50 (value given as range class) lay in the range of 0.0006 to 0.01 µM.
On the same count and under the same terms, the value for `Cc1cc(CN2CCCC[C@H]2C(=O)O)c(OCCCCC#N)cc1OCc1cccc(-c2ccc3c(c2)OCCO3)c1C` [Example 1296, (S)-1-(2-(4-cyanobutoxy)-4-(3-(2,3-dihydrobenzo[b][1,4]dioxin-6-yl)-2-methylbenzyloxy)-5-methylbenzyl)piperidine-2-carboxylic acid] was 0.01 to 0.1 µM.
On the same count and under the same terms, the value for `Cc1cc(CN[C@@](C)(CO)C(=O)O)c(OCCCCC#N)cc1OCc1cccc(-c2ccc3c(c2)OCCO3)c1C` [Example 1297, (S)-2-(2-(4-cyanobutoxy)-4-(3-(2,3-dihydrobenzo[b][1,4]dioxin-6-yl)-2-methylbenzyloxy)-5-methylbenzylamino)-3-hydroxy-2-methylpropanoic acid] was 0.0006 to 0.01 µM; that for `Cc1c(COc2cc(OCc3cncc(C#N)c3)c(CN3CCCC[C@H]3C(=O)O)cc2Br)cccc1-c1ccccc1` [Example 1298, (S)-1-(5-bromo-2-((5-cyanopyridin-3-yl)methoxy)-4-((2-methylbiphenyl-3-yl)methoxy)benzyl)piperidine-2-carboxylic acid] was 0.0006 to 0.01 µM.
In the case of `CC(=O)NCCNCc1cc(Br)c(OCc2cccc(-c3ccc4c(c3)OCCO4)c2C)cc1OCc1cccc(C#N)c1` [Example 1299, N-(2-((5-bromo-2-((3-cyanobenzyl)oxy)-4-((3-(2,3-dihydrobenzo[b][1,4]dioxin-6-yl)-2-methylbenzyl)oxy)benzyl)amino)ethyl)acetamide], the IC50 (value given as range class) was 0.0006 to 0.01 µM.
Still for that read-out and setting: the value for `Cc1c(COc2cc(OCc3cccc(C#N)c3)c(CNC[C@@H](O)CC(=O)O)cc2Br)cccc1-c1ccc2c(c1)OCCO2` [Example 1300, (S)-4-((5-bromo-2-((3-cyanobenzyl)oxy)-4-((3-(2,3-dihydrobenzo[b][1,4]dioxin-6-yl)-2-methylbenzyl)oxy)benzyl)amino)-3-hydroxybutanoic acid] was 0.0006 to 0.01 µM; that for `Cc1c(COc2cc(OCc3cccc(C#N)c3)c(CN[C@@H](CO)C(=O)O)cc2Br)cccc1-c1ccc2c(c1)OCCO2` [Example 1301, (S)-2-((5-bromo-2-((3-cyanobenzyl)oxy)-4-((3-(2,3-dihydrobenzo[b][1,4]dioxin-6-yl)-2-methylbenzyl)oxy)benzyl)amino)-3-hydroxypropanoic acid] was 0.0006 to 0.01 µM; that for `Cc1c(COc2cc(OCc3cccc(C#N)c3)c(CN3CCCC[C@H]3C(=O)O)cc2Br)cccc1-c1ccc2c(c1)OCCO2` [Example 1302, (S)-1-(5-bromo-2-((3-cyanobenzyl)oxy)-4-((3-(2,3-dihydrobenzo[b][1,4]dioxin-6-yl)-2-methylbenzyl)oxy)benzyl)piperidine-2-carboxylic acid] was 0.0006 to 0.01 µM.
On the same count and under the same terms, with `Cc1c(COc2cc(OCc3cccc(C#N)c3)c(CN[C@](C)(CO)C(=O)O)cc2Br)cccc1-c1ccc2c(c1)OCCO2` [Example 1303, (R)-2-((5-bromo-2-((3-cyanobenzyl)oxy)-4-((3-(2,3-dihydrobenzo[b][1,4]dioxin-6-yl)-2-methylbenzyl)oxy)benzyl)amino)-3-hydroxy-2-methylpropanoic acid] the figure was 0.0006 to 0.01 µM; with `Cc1c(COc2cc(OCc3cccc(C#N)c3)c(CN[C@@](C)(CO)C(=O)O)cc2Br)cccc1-c1ccc2c(c1)OCCO2` [Example 1304, (S)-2-((5-bromo-2-((3-cyanobenzyl)oxy)-4-((3-(2,3-dihydrobenzo[b][1,4]dioxin-6-yl)-2-methylbenzyl)oxy)benzyl)amino)-3-hydroxy-2-methylpropanoic acid], 0.0006 to 0.01 µM.

For the origin of these results see US9850225B2, “Compounds useful as immunomodulators” (BRISTOL-MYERS SQUIBB COMPANY, priority 2014, dated 2017).
